{
  "source": "patent US20230174576A1",
  "about": "“BETA-STRAND BRIDGE PEPTIDE” (Xeno-Interface Inc., priority 2020, published 2023)",
  "tested_on": "HeLa cells",
  "assay": "Cell membrane permeability assay, evaluation by FACS",
  "type": "cell-based",
  "settings": "FITC-labeled peptide 0.1 μM, 37° C.",
  "method": "HeLa cells are grown in DMEM containing 10% fetal bovine serum and penicillin/streptomycin, treated with trypsin, washed twice with medium using a centrifuge, and seeded into multi-well plates for overnight incubation. FITC-labeled peptides are added to the cells at 37° C. and the cells are incubated at 37° C. The cells are washed twice with medium and twice with PBS, and treated with trypsin at 37° C. HeLa cells are collected and centrifuged, washed twice with medium and twice with PBS, and PBS containing propidium iodide is added to the cell. The cell membrane permeability of the peptides is quantitatively analyzed by FACS.\n(Evaluation of Cell Membrane Permeability by FACS)",
  "data": [
    {"substance": "Ac—W I F [K] H R—NH2 [WT]", "values": [
      {"measurement": "Mean: FITC-A", "result": 3192}
    ]}
  ]
}
